The source of these data is patent US20230219906A1, “MACROCYCLIC-2-AMINO-3-FLUORO-BUT-3-ENAMIDES AS INHIBITORS OF MCL-1” (Janssen Pharmaceutica NV, priority 2020, published 2023).

In general, AC50 refers to the concentration at which the activity in the assay is half-maximal. As a reminder, the Ki is the equilibrium dissociation constant of an inhibitor or competing ligand from its target.

Assay [1] has as its system MOLP-8 human multiple myeloma cell line. In words: Caspase-Glo 3/7 apoptosis induction assay in MOLP-8 cells. The format is cell-based. As to conditions: Homo sapiens, MOLP-8, 2 h, caspase-3/7 activity, 2 hours at 37° C.; averaged over all runs on all batches; read-out: MOLP8 AC50. In outline: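 MOLP-8 cells were treated for 2 h at 37° C with 10-dose, 1/3 serial dilutions ([…], 0.5% DMSO final, duplicates). Caspase-3/7 activity was read by Caspase-Glo luminescence 30 min after reagent addition. % effect was normalised between low (1% DMSO) and high (positive control) controls.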

Assay [2] concerns the target Myeloid Cell Leukemia 1(Mcl-1) (Homo sapiens, UniProt Q07820). Briefly: Terbium labeled Mcl-1 HTRF binding assay with Cy5-labeled BIM BH3 peptide. As to conditions: displacement of Cy5 Bim BH3 peptide; Ki=IC50/(1+[L]/Kd), [L]=8 nM, Kd=10 nM; 60 minutes at room temperature; read-out: Tb-MCL1 Ki. In outline: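 TR-FRET displacement of Cy5-BIM BH3 peptide (8 nM; Kd 10 nM) from 25 pM Tb-labelled Mcl-1 in 10 mM Tris-HCl pH 7.5, 150 mM NaCl, 2 mM DTT, 0.0025% Tween-20, 0.1 mg/mL BSA, 1% DMSO. 60 min at room temperature; 665/620 nm ratio normalized to controls, IC50 from 11-point curve.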
On the technique in general: In TR-FRET formats the signal depends on donor and acceptor labels being close together.

Sequence of Myeloid Cell Leukemia 1(Mcl-1) (Q07820 whole entry): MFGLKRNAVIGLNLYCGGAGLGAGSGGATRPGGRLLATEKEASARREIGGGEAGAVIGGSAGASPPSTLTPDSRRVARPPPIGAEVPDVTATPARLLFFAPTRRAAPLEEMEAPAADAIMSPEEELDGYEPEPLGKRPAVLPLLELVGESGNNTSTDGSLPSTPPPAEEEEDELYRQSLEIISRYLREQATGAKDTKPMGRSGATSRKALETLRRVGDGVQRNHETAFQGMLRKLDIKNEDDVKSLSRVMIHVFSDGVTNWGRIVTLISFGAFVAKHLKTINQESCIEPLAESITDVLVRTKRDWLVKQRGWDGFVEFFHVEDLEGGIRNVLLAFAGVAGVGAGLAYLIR

For the molecule `CC1CN(CCN(C)C(=O)[C@H]2/C(F)=C/C[C@H](C)[C@@H](C)S(=O)(=O)NC(=O)c3ccc4c(c3)N(C[C@@H]3CCCN32)C[C@@]2(CCCc3cc(Cl)ccc32)CO4)CC(C)O1` (stereo partly shown) [Compound 44], in assay [1], the AC50 was found to be 87.3 nM. Besides, the inhibitory constant (Ki) in assay [2] is 0.104 nM.
For `C[C@@H]1[C@@H](C)C/C=C(\F)[C@H](C(=O)N2CCC(CC#N)CC2)N2CCC[C@H]2CN2C[C@@]3(CCCc4cc(Cl)ccc43)COc3ccc(cc32)C(=O)NS1(=O)=O` [Compound 46], in that order: 329 nM and 0.091 nM.
Take `C[C@@H]1[C@@H](C)C/C=C(\F)[C@H](C(=O)N2CC[C@@H](C#N)C2)N2CCC[C@H]2CN2C[C@@]3(CCCc4cc(Cl)ccc43)COc3ccc(cc32)C(=O)NS1(=O)=O` [Compound 47]: the concentration at half-maximal activity (AC50) in assay [1] is 241 nM. For the same molecule, the Ki in assay [2] was determined as 0.065 nM.
In the case of `C[C@@H]1[C@@H](C)C/C=C(\F)[C@H](C(=O)N(C)CCOc2cncc(F)c2)N2CCC[C@H]2CN2C[C@@]3(CCCc4cc(Cl)ccc43)COc3ccc(cc32)C(=O)NS1(=O)=O` [Compound 48], in assay [1], the concentration at half-maximal activity (AC50) amounted to 112 nM. Further, in assay [2], the inhibition constant (Ki) was 0.155 nM.
For `CO[C@@H]1CCN(C(=O)[C@H]2/C(F)=C/C[C@H](C)[C@@H](C)S(=O)(=O)NC(=O)c3ccc4c(c3)N(C[C@@H]3CCCN32)C[C@@]2(CCCc3cc(Cl)ccc32)CO4)C1` [Compound 52], in that order: 90.5 nM and 0.036 nM.
For `C[C@@H]1[C@@H](C)C/C=C(\F)[C@H](C(=O)N2C[C@@H]3OCCO[C@@H]3C2)N2CCC[C@H]2CN2C[C@@]3(CCCc4cc(Cl)ccc43)COc3ccc(cc32)C(=O)NS1(=O)=O` [Compound 53], in that order: 169 nM and 0.069 nM.
For `C[C@@H]1[C@@H](C)C/C=C(\F)[C@H](C(=O)N(C)C2CCCOC2)N2CCC[C@H]2CN2C[C@@]3(CCCc4cc(Cl)ccc43)COc3ccc(cc32)C(=O)NS1(=O)=O` (stereo partly shown) [Compound 58], in that order: 55.7 nM and 0.041 nM.
In the case of `COCCN(CC1CCOCC1)C(=O)[C@H]1/C(F)=C/C[C@H](C)[C@@H](C)S(=O)(=O)NC(=O)c2ccc3c(c2)N(C[C@@H]2CCCN21)C[C@@]1(CCCc2cc(Cl)ccc21)CO3` [Compound 59], the AC50 in assay [1] turned out to be 33.4 nM. For the same molecule, the Ki in assay [2] is 0.06 nM.
For `CO[C@H]1CN(C(=O)[C@H]2/C(F)=C/C[C@H](C)[C@@H](C)S(=O)(=O)NC(=O)c3ccc4c(c3)N(C[C@@H]3CCCN32)C[C@@]2(CCCc3cc(Cl)ccc32)CO4)C[C@H]1OC` [Compound 60], in that order: 92.3 nM and 0.022 nM.
The corresponding values for `C[C@@H]1[C@@H](C)C/C=C(\F)[C@H](C(=O)N(C)CCn2cccn2)N2CCC[C@H]2CN2C[C@@]3(CCCc4cc(Cl)ccc43)COc3ccc(cc32)C(=O)NS1(=O)=O` [Compound 61] are 166 nM and 0.074 nM.
In the case of `C[C@@H]1[C@@H](C)C/C=C(\F)[C@H](C(=O)N(C)Cc2nnnn2C)N2CCC[C@H]2CN2C[C@@]3(CCCc4cc(Cl)ccc43)COc3ccc(cc32)C(=O)NS1(=O)=O` [Compound 66], in assay [1], the half-maximal activity concentration (AC50) is 357 nM. Moreover, the inhibitory constant (Ki) in assay [2] is 0.025 nM.
Turning to `C[C@@H]1[C@@H](C)C/C=C(\F)[C@H](C(=O)N(C)Cc2nnn(C)n2)N2CCC[C@H]2CN2C[C@@]3(CCCc4cc(Cl)ccc43)COc3ccc(cc32)C(=O)NS1(=O)=O` [Compound 67], in assay [1], the AC50 turned out to be 120 nM. Also, the inhibitory constant (Ki) in assay [2] came to 0.037 nM.
The corresponding values for `COCCCN(CCOC)C(=O)[C@H]1/C(F)=C/C[C@H](C)[C@@H](C)S(=O)(=O)NC(=O)c2ccc3c(c2)N(C[C@@H]2CCCN21)C[C@@]1(CCCc2cc(Cl)ccc21)CO3` [Compound 70] are 41.9 nM and 0.028 nM.
In the case of `COCCN(CCOC)CCN(C)C(=O)[C@H]1/C(F)=C/C[C@H](C)[C@@H](C)S(=O)(=O)NC(=O)c2ccc3c(c2)N(C[C@@H]2CCCN21)C[C@@]1(CCCc2cc(Cl)ccc21)CO3` [Compound 73], in assay [1], the half-maximal activity concentration (AC50) came out at 91.4 nM. Besides, the inhibitory constant (Ki) in assay [2] stood at 0.021 nM.
For `C[C@@H]1[C@@H](C)C/C=C(\F)[C@H](C(=O)N(CCO)CCN2CCOCC2)N2CCC[C@H]2CN2C[C@@]3(CCCc4cc(Cl)ccc43)COc3ccc(cc32)C(=O)NS1(=O)=O` [Compound 74], in that order: 436 nM and 0.02 nM.
For `C[C@@H]1[C@@H](C)C/C=C(\F)[C@H](C(=O)N(C)CCN2CCCOCC2)N2CCC[C@H]2CN2C[C@@]3(CCCc4cc(Cl)ccc43)COc3ccc(cc32)C(=O)NS1(=O)=O` [Compound 75], in that order: 83 nM and 0.022 nM.
For `COCCN(CCN1CCOCC1)C(=O)[C@H]1/C(F)=C/C[C@H](C)[C@@H](C)S(=O)(=O)NC(=O)c2ccc3c(c2)N(C[C@@H]2CCCN21)C[C@@]1(CCCc2cc(Cl)ccc21)CO3` [Compound 76], in that order: 36.7 nM and 0.017 nM.
`COCCN(CCOC)C(=O)[C@H]1/C(F)=C/C[C@H](C)[C@@H](C)S(=O)(=O)NC(=O)c2ccc3c(c2)N(C[C@@H]2CCCN21)C[C@@]1(CCOc2cc(Cl)ccc21)CO3` [Compound 77]: the concentration at half-maximal activity (AC50) in assay [1] came out at 144 nM. In addition, the Ki in assay [2] came to 0.027 nM.
For `C[C@@H]1[C@@H](C)C/C=C(\F)[C@H](C(=O)N(C)CCN2CCOCC2)N2CCC[C@H]2CN2C[C@@]3(CCOc4cc(Cl)ccc43)COc3ccc(cc32)C(=O)NS1(=O)=O` [Compound 78], in assay [1], the AC50 was 547 nM. Moreover, the inhibition constant Ki in assay [2] is 0.016 nM.
The corresponding values for `C[C@@H]1[C@@H](C)C/C=C(\F)[C@H](C(=O)N(C)CC2OCCO2)N2CCC[C@H]2CN2C[C@@]3(CCCc4cc(Cl)ccc43)COc3ccc(cc32)C(=O)NS1(=O)=O` [Compound 79] are 106 nM and 0.038 nM.
For `Cc1nc(CN(C)C(=O)[C@H]2/C(F)=C/C[C@H](C)[C@@H](C)S(=O)(=O)NC(=O)c3ccc4c(c3)N(C[C@@H]3CCCN32)C[C@@]2(CCCc3cc(Cl)ccc32)CO4)co1` [Compound 80], in that order: 134 nM and 0.079 nM.
For `C[C@@H]1[C@@H](C)C/C=C(\F)[C@H](C(=O)N(C)Cc2ncnn2C)N2CCC[C@H]2CN2C[C@@]3(CCCc4cc(Cl)ccc43)COc3ccc(cc32)C(=O)NS1(=O)=O` [Compound 81], in that order: 537 nM and 0.068 nM.
Turning to `CCS(=O)(=O)CCN(C)C(=O)[C@H]1/C(F)=C/C[C@H](C)[C@@H](C)S(=O)(=O)NC(=O)c2ccc3c(c2)N(C[C@@H]2CCCN21)C[C@@]1(CCCc2cc(Cl)ccc21)CO3` [Compound 82], the concentration at half-maximal activity (AC50) in assay [1] worked out at 557 nM. Besides, the Ki in assay [2] is 0.025 nM.
The corresponding values for `C[C@@H]1[C@@H](C)C/C=C(\F)[C@H](C(=O)N2CCN(C)C3(CC3)C2)N2CCC[C@H]2CN2C[C@@]3(CCCc4cc(Cl)ccc43)COc3ccc(cc32)C(=O)NS1(=O)=O` [Compound 83] are 252 nM and 0.061 nM.
Consider `C[C@@H]1[C@@H](C)C/C=C(\F)[C@H](C(=O)N2CC(C)(N3CCOCC3)C2)N2CCC[C@H]2CN2C[C@@]3(CCCc4cc(Cl)ccc43)COc3ccc(cc32)C(=O)NS1(=O)=O` [Compound 84], for which the AC50 in assay [1] was 317 nM. Besides, the inhibitory constant (Ki) in assay [2] was 0.04 nM.
For `COCCN1CCC(CN(C)C(=O)[C@H]2/C(F)=C/C[C@H](C)[C@@H](C)S(=O)(=O)NC(=O)c3ccc4c(c3)N(C[C@@H]3CCCN32)C[C@@]2(CCCc3cc(Cl)ccc32)CO4)CC1` [Compound 85], in that order: 759 nM and 0.025 nM.
The corresponding values for `C[C@@H]1[C@@H](C)C/C=C(\F)C(CO)(C(=O)N(C)CCN2CCOCC2)N2CCC[C@H]2CN2C[C@@]3(CCCc4cc(Cl)ccc43)COc3ccc(cc32)C(=O)NS1(=O)=O` (stereo partly shown) [Compound 86] are 1600 nM and 0.032 nM.
The corresponding values for `C[C@@H]1[C@@H](C)C/C=C(\F)[C@H](C(=O)N(C)CCN2CC(F)(F)C2)N2CCC[C@H]2CN2C[C@@]3(CCCc4cc(Cl)ccc43)COc3ccc(cc32)C(=O)NS1(=O)=O` [Compound 87] are 84.8 nM and 0.071 nM.
Take `COCCN(CCOC)C(=O)[C@H]1/C(F)=C/C[C@H](C)CS(=O)(=O)NC(=O)c2ccc3c(c2)N(C[C@@H]2CCCN21)C[C@@]1(CCCc2cc(Cl)ccc21)CO3` [Compound 88]: the AC50 in assay [1] was determined as 116 nM. The Ki in assay [2] is 0.029 nM.
